One assay addresses T1, papain (Carica papaya, UniProt P00784).
T1 construct: purchased Sigma P4762-25MG
T1 sequence (P00784 134-345): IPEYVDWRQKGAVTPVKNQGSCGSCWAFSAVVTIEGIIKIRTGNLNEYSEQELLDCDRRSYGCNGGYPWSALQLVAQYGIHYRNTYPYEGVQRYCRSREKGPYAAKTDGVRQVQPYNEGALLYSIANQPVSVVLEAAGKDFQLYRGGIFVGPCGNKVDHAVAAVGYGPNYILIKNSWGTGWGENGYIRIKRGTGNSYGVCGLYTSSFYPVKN
Kind of assay: biochemical. Particulars: 200 pM enzyme, 10 µM Z-FR-AFC; for IC50: 50 mM sodium phosphate pH 7, 1 mM EDTA, 2 mM DTT, 30 °C, 15 min preincubation at room temperature, fluorescence, meaning of ± and n not given, read-out: IC50, inhibition of papain; for Inhibition of papain at 25 µM (in words): pH 7, 30 °C.

The next assay has as its system chymotrypsin. The class given is biochemical. The note with it: 1 nM enzyme, 10 µM Suc-AAPF-AMC, Tris HCl pH 8, 30 °C.
In assay [1] the test system is proteases (trypsin, chymotrypsin, papain, cathepsin B, cathepsin L, ACE, M^pro). It is filed as biochemical.
In the next assay the test system is trypsin. The class given is biochemical. Particulars: 500 pM enzyme, 10 µM Boc-QAR-AMC, Tris HCl pH 8, 30 °C.
Assay [2] relates to main protease from SARS CoV‐2 (M^pro). The class given is biochemical.
Another assay has as its target T2, cathepsin B (Homo sapiens, UniProt P07858).
T2 construct: purchased Athens research and technology 16-12-030102
Kind of assay: biochemical. Particulars: 192.4 pM enzyme, 20 µM Z-RR-4MBNA; for Inhibition of cathepsin B at 25 µM (in words): pH 6.0, 30 °C.

The target of the next assay is T3, cathepsin L (Homo sapiens, UniProt P07711).
T3 construct: purchased Athens research and technology 16-12-030112
Kind of assay: biochemical. Particulars: 200 pM enzyme, 10 µM Z-FR-AFC; for Inhibition of cathepsin L at 25 µM (in words): pH 5.5, 30 °C.

Assay [3] has as its system ApyO. The class given is biochemical, Burkholderia thailandensis E264. The note with it: pH 7.5.
For assay [4], the system named is ApyO. It is filed as biochemical, Burkholderia thailandensis E264. The note with it: pH 7.5. This is another data set of the same source.
Assay [5] concerns the target T4, angiotensin I‐converting enzyme (ACE) (Oryctolagus cuniculus, UniProt P12822).
T4 construct: purchased Sigma A6778
T4 sequence (P12822 34-1310): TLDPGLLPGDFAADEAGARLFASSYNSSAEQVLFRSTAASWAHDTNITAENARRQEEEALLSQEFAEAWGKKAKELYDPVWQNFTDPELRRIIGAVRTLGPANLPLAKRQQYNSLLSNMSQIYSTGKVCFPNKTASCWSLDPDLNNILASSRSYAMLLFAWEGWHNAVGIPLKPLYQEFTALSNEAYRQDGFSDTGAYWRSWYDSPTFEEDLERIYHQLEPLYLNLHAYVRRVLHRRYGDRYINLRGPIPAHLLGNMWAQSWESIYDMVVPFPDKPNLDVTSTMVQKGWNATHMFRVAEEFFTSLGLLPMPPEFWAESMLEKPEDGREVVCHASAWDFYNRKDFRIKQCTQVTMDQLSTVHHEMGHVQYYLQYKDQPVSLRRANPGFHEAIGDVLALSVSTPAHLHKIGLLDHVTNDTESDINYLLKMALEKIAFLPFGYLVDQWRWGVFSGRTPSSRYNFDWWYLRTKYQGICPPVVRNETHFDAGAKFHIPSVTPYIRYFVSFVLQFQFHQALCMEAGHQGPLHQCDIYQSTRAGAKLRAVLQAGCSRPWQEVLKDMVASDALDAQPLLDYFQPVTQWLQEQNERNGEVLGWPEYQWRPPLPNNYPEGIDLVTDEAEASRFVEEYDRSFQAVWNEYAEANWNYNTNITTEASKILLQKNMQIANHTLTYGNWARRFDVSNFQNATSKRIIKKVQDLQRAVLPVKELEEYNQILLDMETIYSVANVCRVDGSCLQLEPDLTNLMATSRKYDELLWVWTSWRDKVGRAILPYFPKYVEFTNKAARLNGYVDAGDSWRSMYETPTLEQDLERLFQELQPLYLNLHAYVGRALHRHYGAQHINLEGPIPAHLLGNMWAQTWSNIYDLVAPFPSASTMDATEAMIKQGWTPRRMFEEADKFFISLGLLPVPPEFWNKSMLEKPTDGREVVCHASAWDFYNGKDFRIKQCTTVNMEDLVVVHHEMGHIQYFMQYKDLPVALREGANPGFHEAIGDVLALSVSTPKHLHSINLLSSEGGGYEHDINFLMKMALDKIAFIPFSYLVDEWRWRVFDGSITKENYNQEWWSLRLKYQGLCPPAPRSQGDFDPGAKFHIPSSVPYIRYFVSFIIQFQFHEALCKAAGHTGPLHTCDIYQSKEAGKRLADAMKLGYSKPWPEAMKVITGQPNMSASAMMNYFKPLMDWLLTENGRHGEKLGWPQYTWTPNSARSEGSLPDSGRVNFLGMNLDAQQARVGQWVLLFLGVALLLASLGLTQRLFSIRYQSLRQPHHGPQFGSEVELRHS
The class given is biochemical. Particulars: 0.4 mU/mL enzyme, 10 µM Abz-FRK(Dnp)-P-OH, pH 7.5, 37 °C.

Where “and” joins values, the source holds several entries; their conditions need not be identical. Equal entries are not always repeated. Entries after “also recorded” stand apart in the source; their conditions may differ.

T3 sequence (P07711 114-333): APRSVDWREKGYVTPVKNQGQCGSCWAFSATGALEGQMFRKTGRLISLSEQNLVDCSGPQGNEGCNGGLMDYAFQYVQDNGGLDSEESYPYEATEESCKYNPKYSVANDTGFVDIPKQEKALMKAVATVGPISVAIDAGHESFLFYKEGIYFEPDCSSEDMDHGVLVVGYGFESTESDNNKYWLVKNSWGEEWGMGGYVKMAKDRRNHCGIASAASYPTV

By IC50 is commonly meant the point on the concentration scale where inhibition reaches its midpoint. With `NCC(=O)N[C@H]1Cc2ccc(O)c(c2)Oc2ccc(cc2)C[C@@H](C(=O)N[C@@H](CC(=O)O)C(=O)O)NC(=O)[C@H](Cc2ccc(O)cc2)NC1=O` (single isomer, unassigned) [L7Y isomer-2], the IC50 at papain worked out at 11700 nM.

In the case of `CC(C)C[C@@H]1NC(=O)[C@@H](NC(=O)CN)Cc2ccc(O)c(c2)-c2cc(ccc2O)C[C@@H](C(=O)N[C@@H](C)C(=O)C(=O)O)NC1=O` [desmethylaminopyruvatide A], the “Inhibition of chymotrypsin (in words)” value in the assay with chymotrypsin (test concentration not given) is “No inhibition”. In addition, in assay [1] (Cys proteases / select proteases), the “Protease inhibition, potency in words” value is on record as “nanomolar activity against Cys‐proteases; also recorded: subnanomolar inhibitory activity against clinically relevant Cys proteases”. For the same molecule, the “Specificity (in words)” value in [1] (cathepsin L, cathepsin B, papain versus trypsin, chymotrypsin, Mpro) is on record as “specificity towards the papain family of Cys proteases”. The “Inhibition of trypsin (in words)” value in the assay with trypsin (test concentration not given) is recorded as “No inhibition”. Further, in assay [2], the “Inhibition of SARS CoV-2 Mpro (in words)” value is “No inhibition”. In addition, the IC50 stood at 0.3 nM at papain; 0.5 nM on cathepsin B (100 mM sodium phosphate pH 6.0, 1.33 mM EDTA, 2 mM DTT, 30 °C, 15 min preincubation at room temperature, fluorescence, readings every 60 s for 1 h, meaning of ± and n not given, read-out: IC50, inhibition of cathepsin B); 0.6 nM on cathepsin L (50 mM sodium acetate pH 5.5, 2.5 mM EDTA, 2.5 mM DTT, 30 °C, 15 min preincubation at room temperature, fluorescence, meaning of ± and n not given, read-out: IC50, inhibition of cathepsin L).

In the case of fMGEGYLYD, in the assay with ApyO [3], the “Modification by ApyO (in words)” value is “did not result in product formation”.

On to “GYYYD (sidechain bridge or staple) [L7Y isomer-1]”, for which the “Inhibition of chymotrypsin at 25 µM (in words)” value in the assay on chymotrypsin is “No inhibition was observed”. In addition, the “Inhibition of trypsin at 25 µM (in words)” value with trypsin is “No inhibition was observed”. Further, in assay [2], the “Inhibition of SARS CoV-2 Mpro at 25 µM (in words)” value is on record as “No inhibition was observed”. In addition, on papain, the “Inhibition of papain at 25 µM (in words)” value is “No inhibition was observed”. Besides, the “Inhibition of cathepsin B at 25 µM (in words)” value (“Inhibition of cathepsin B” for short) at cathepsin B is given as “No inhibition was observed”. Moreover, the “Inhibition of cathepsin L at 25 µM (in words)” value (from here on “Inhibition of cathepsin L”) on cathepsin L is recorded as “No inhibition was observed”.

One may read the Km as the concentration of substrate that gives half-maximal velocity. Turning to “N‐terminally acetylated‐GRMGEGYLYD [Ac-ApyAct]”, in the assay with ApyO [4], the Michaelis-Menten constant (Km) was found to be 80 ± 7 µM; the kcat was 1.63 and 1.63 ± 0.04.

In the case of “GYWYD (sidechain bridge or staple) [L7W isomer-2]”, the “Inhibition of chymotrypsin at 25 µM (in words)” value in the assay with chymotrypsin is recorded as “No inhibition was observed”. In addition, in the assay with trypsin, the “Inhibition of trypsin at 25 µM (in words)” value is “No inhibition was observed”. In addition, the “Inhibition of SARS CoV-2 Mpro at 25 µM (in words)” value in assay [2] is recorded as “No inhibition was observed”. The “Inhibition of ACE at 25 µM (in words)” value in assay [5] is on record as “weak inhibition”. The “Inhibition of ACE at 25 µM” value in assay [5] (IC50 not determined) is roughly 40%. In addition, on papain, the “Inhibition of papain at 25 µM (in words)” value is “No inhibition was observed”. For the same molecule, the “Inhibition of cathepsin B” value at cathepsin B is recorded as “No inhibition was observed”. In addition, the “Inhibition of cathepsin L” value on cathepsin L was “No inhibition was observed”.

On to “GWLYD (sidechain bridge or staple) [Y6W]”, for which the “Inhibition of chymotrypsin at 25 µM (in words)” value in the assay with chymotrypsin is “No inhibition was observed”. Besides, in the assay on trypsin, the “Inhibition of trypsin at 25 µM (in words)” value is “No inhibition was observed”. Besides, in assay [2], the “Inhibition of SARS CoV-2 Mpro at 25 µM (in words)” value was “No inhibition was observed”. In addition, the “Inhibition of papain at 25 µM (in words)” value on papain is given as “No inhibition was observed”. For the same molecule, the “Inhibition of cathepsin B” value at cathepsin B is reported as “No inhibition was observed”. Besides, the “Inhibition of cathepsin L” value on cathepsin L is given as “No inhibition was observed”.

Take fMRMGEGYLYD [ApyAct]: in the assay with ApyO [3], the “Conversion of substrate by ApyO” value was roughly 70%.

The values above are taken from PMC13703928, “Substrate‐Dependent Crosslinking by the Cytochrome P450 From Aminopyruvatide Biosynthesis” (Angewandte Chemie (International Ed. in English), 2026).
